Source: PMC12518639, “Apomorphine is a novel necroptosis inhibitor targeting mixed lineage kinase domain-like protein oligomerization” (Cell Death Discovery, 2025)

What was measured:
[1] = system: p-MLKL and p-RIP1; assay: Western blot of cytosol and membrane fractions; assay type: cell-based, human; conditions: THP-1, TBZ, 20 μM
Method: The cells were harvested and lysed in 1× RIPA buffer (R4100-010, GenDEPOT, Katy, TX, USA) containing protease (P3100-001, GenDEPOT) and phosphatase (1862495, Thermo Fisher Scientific) inhibitors. WCLs were then centrifuged at 20,000×g for 30 min at 4 °C and subjected to non-reducing or reducing 8–12% SDS-PAGE gel electrophoresis. The membrane was blocked with 5% non-fat milk in TBS and probed with antibodies. Antibodies to hMLKL (14993S), mMLKL (97705S), phospho-hMLKL (Ser358) (91689S), phospho-mMLKL (Ser345) (37333S), phospho-hRIP1 (Ser166) (65746S), mRIP1 (3493S), phospho-mRIP1 (Ser321) (38662S), phospho-hRIP3 (Ser227) (93654), mRIP3 (95702S), p-mRIP3 (Thr231/Ser232) (91702S), and LDH (2012S) (Cell Signaling Technology, Danvers, MA, USA), and GAPDH (LF-PA0018, Abfrontier, S. Korea), hRIP1 (ab72139, Abcam, Cambridge, UK), hRIP3 (sc-135170, Santa Cruz Biotechnology, Dallas, TX, USA), HMGB1 (ab78923, Abcam), and LAMP1 (ab24170, Abcam) antibodies were used.
Cell membrane fractionation was performed to determine whether MLKL oligomers were retained in the cell membrane fraction. Briefly, THP-1 cells were harvested and resuspended in 20 mM TBS (pH 7.4) containing 10 mM KCl, 1 mM MgCl2, protease inhibitor (P3100-001, GenDEPOT), and phosphatase inhibitor (1862495, Thermo Fisher Scientific). The cell suspension was passed through a 22-gauge needle and centrifuged at 20,000×g for 15 min and stored as the cytoplasmic fraction. The pellet was resuspended in lysis buffer and stored as the crude membrane fraction.
Fig. S1 Assessment of p-MLKL inhibition to identify MLKL-targeting molecules. (A) Quantification graph corresponding to Fig. 1C. THP-1 cells were treated with TBZ in the presence of secondarily selected compounds (S1–S72, 20 μM). Whole-cell lysates (WCLs) were collected and subjected to Western blot analysis under reducing conditions using antibodies against p-MLKL, MLKL, and GAPDH. The p-MLKL/MLKL ratio was quantified and compared to that of TBZ-treated cells. Data represent the mean of three independent experiments. (B) Quantification graph corresponding to Fig. 1D. THP-1 cells were treated with TBZ in the presence of third-round selected compounds (S1–S62, 20 μM). Cytosolic and membrane fractions were collected and analyzed by Western blot under reducing conditions. The levels of p-MLKL and p-RIP1 were normalized to LDH (cytosolic marker) and LAMP1 (membrane marker), respectively. Quantified ratios were compared to those of TBZ-treated cells (n = 3 independent experiments).

[2] = target: T1, Nt-hMLKL^C86A/L89A/D94A (Homo sapiens, UniProt Q8NB16, C86A/D94A/L89A); assay: SPR binding to Nt-hMLKL triple mutant; conditions: CM5 chip
T1 construct: an N-terminal domain (Nt-hMLKL, amino acids 2–154, MW: 23 kDa) involved in oligomerization; His (N); made in house; host or cells: E. coli BL21
Text: The hMLKL plasmid (RC213152, OriGene, Rockville, MD, USA), and recombinant Wt-hMLKL (ab241453, Abcam) and Wt-mMLKL (MBS1379843, MyBioSource, San Diego, CA, USA) proteins were purchased. Nt-hMLKL (2–154), Nt-mMLKL (1–180), and Ct-hMLKL (183–471) were generated using the pBT7-N-His vector. Nt-hMLKL^C86A, Nt-hMLKL^F148A, -hMLKL^C86A/L89A/D94A, and Nt-hMLKL^R145A/R146A/F148A/M150A were generated using the Site-directed Mutagenesis Kit (EZ004S, Enzynomics, S. Korea). These constructs were subcloned into pBT7-N-His and pET-15b plasmid vectors. E. coli BL21 cells transformed with the cloned expression vectors were cultured in LB medium and supplemented with 100 μg/mL ampicillin until an OD at 600 nm of 0.5–0.6 was reached. The cultures were induced by 1 mM IPTG (367-93-1, Sigma-Aldrich). The cells were lysed and centrifuged. The clear supernatants were subjected to Ni-NTA affinity chromatography (175018169, QIAGEN, Hilden, Germany). Plasmids encoding mMLKL (1–464)–gyrase fusion constructs were kindly provided by Prof. […]
The interactions of Wt-hMLKL, Wt-mMLKL, Nt-mMLKL, Nt, and Ct-hMLKL proteins with Re-APO or Ox-APO were detected through SPR analysis using Biacore™ T200 (Cytiva, Marlborough, MA, USA). […] Sensorgrams were recorded and analyzed in real-time using the control software in the BIAcore T200 system. All data were analyzed using the BIA evaluation software (Cytiva).

[3] = system: J774A.1 cells transfected with Wt-mMLKL (1–464)-gyrase; assay: PI uptake after chemically induced mMLKL-gyrase dimerization; assay type: cell-based, mouse; conditions: 20 μM overnight
Method: PI uptake assays were performed in triplicate to evaluate pore formation on the plasma membrane. THP‑1 cells (2 × 10⁵ cells/well) were seeded in black-walled, clear-bottom 96-well plates and treated with TBZ (TNF, BV6, and z-VAD-FMK) in the presence or absence of candidate compounds for 8 h to induce necroptosis. […] PI (556463, BD Biosciences, San Jose, CA, USA) was added at a final concentration of 1 μg/mL for 10 min before measurement. Fluorescence was recorded using a Varioskan Flash 3001 plate reader (Thermo Fisher Scientific, Waltham, MA, USA).
J774A.1 cells were transfected with plasmids encoding mMLKL (1–464)-gyrase. mMLKL-gyrase expression was induced with 10 ng/mL doxycycline (Dox), followed by 700 nM coumermycin treatment for 4 h to promote dimerization. Then, Ox-APO (20 μM) was added, and the cells were incubated overnight. PI uptake was measured using a microplate reader, and the values were normalized to those of the untreated group. Data represent mean ± SEM (n = 3). **p < 0.01, ***p < 0.001, one-way ANOVA. The expression of mMLKL-gyrase was confirmed by SDS-PAGE of WCLs, followed by immunoblotting with the indicated antibodies. The arrowhead indicates endogenous MLKL, while the tailed arrow denotes the mMLKL–gyrase fusion protein.

T1 sequence (Q8NB16 2-154 C86A/L89A/D94A): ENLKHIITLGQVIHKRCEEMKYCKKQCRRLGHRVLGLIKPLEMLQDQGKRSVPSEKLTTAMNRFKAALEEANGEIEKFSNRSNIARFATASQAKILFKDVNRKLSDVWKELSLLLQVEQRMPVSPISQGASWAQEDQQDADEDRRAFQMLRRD

| Structure (SMILES) | p-MLKL levels in the cytosolic fraction [1] | p-MLKL levels in the membrane fraction [1] | binding in SPR [2] | PI-positive cells after Dox and coumermycin stimulation [3] |
| --- | --- | --- | --- | --- |
| CN1CCc2cccc3c2[C@@H]1Cc1ccc(O)c(O)c1-3 [S62, (6aS)-6-methyl-5,6,6a,7-tetrahydro-4H-dibenzo[de,g]quinoline-10,11-diol] | little or moderate inhibition | significantly inhibited |  |  |
| CN1CCc2cccc3c4c(cc1c23)C=CC(=O)C4=O [Ox-APO] |  |  | no binding | markedly reduced |
